Article PMC5729604, “Dual inhibitors of hepatitis C virus and hepatocellular carcinoma: design, synthesis and docking studies” (Future Science OA, 2017)
≈ marks a conversion by molar mass, not a printed value. Like-named read-outs stand apart in the source and are kept apart here.

Assays:
[1] = system: human HCC cell line HepG2; assay: cells; type: cell-based; settings: for IC50: Homo sapiens, HepG2, 72 h, neutral red; for IC50 / (LD0) HepG2 / Safe doses (100% viability of HepG2) LD0: 72 h; for (LD0) HepG2 / Safe doses (100% viability of HepG2) LD0: human; for in vitro anticancer activity against HepG2, in words: IC50 <100 μg/ml potential, 100-1000 μg/ml moderate
Experimental: The safe compounds on RBCs (5a-g, 5i-l, 5p-r, 5v-w, 6b-g) were screened for their potential anticancer activity against human HCC cell line HepG2. HepG2 cells were exposed to the test compounds, then viability of cells was measured using neutral red uptake assay as described by Borenfreund and Puerner. This assay depends on the fact that neutral red dye can be incorporated into the lysosomes of living cells providing a quantitative assay to the cytotoxic effects. The results were interpreted to calculate both the concentration causing 50% cancer cell death (IC50) of each compound and the maximum safe concentration that cause 100% viability (LD0; to be used in the in vitro anti-HCV testing) using GraphPad InStat 3.0 software (Figure 5 & Supplementary Table 2).
HepG2 cells were routinely maintained as adherent cell cultures in RPMI-1640 medium (Lonza Group Ltd, Basel, Switzerland) supplemented with 10% fetal bovine serum (FBS; Lonza, IL, USA) at 37°C in a humidified air incubator containing 5% CO2. Cells were subcultured for 2 weeks before assay. Cell viability was assessed using trypan blue exclusion method.
HepG2 cells were washed twice in RPMI-1640 medium supplemented with 200 μM L-glutamine (Lonza) and […] 4-(2-hydroxyethyl)-1-piperazineethanesulfonic acid (HEPES) buffer (Lonza). The cells were suspended at 3 × 10^4 cells/ml in RPMI culture medium (RPMI supplemented medium and 10% FBS). The appropriate number of cells was chosen to be 3 × 10^3 cells/well (100 μl of the prepared suspension), and the cells were left to adhere on the polystyrene 96-well plates in an incubator at 37°C, 5% CO2 and 95% humidity for 24 h. The cells were washed once using RPMI supplemented medium.
A 2 mg/ml stock solution of each compound was prepared in DMF and filtered using a 0.2 μM syringe filter. The desired concentrations (20, 10, 5, 2.5 and 1.25 μg/ml) were prepared using serial dilution in a 96-well plate. Compound wells were prepared by adding 100 μl of the previously prepared concentrations to a 100 μl of HepG2 cells suspension. Parallel concentrations of the solvent were prepared to be used as controls. 5-Fluorouracil was used as a positive control. Control wells were prepared by adding 100 μl culture media to a 100 μl of HepG2 cells suspension. Blank wells contained 200 μl of culture media only (without cells or compound solution). Each set of samples was pipetted in duplicate. The plate was gently shaken, then incubated at 37°C, 5% CO2 for 72 h.
After incubation, the plate was centrifuged (2000 r.p.m. for 10 min). The media were discarded by inversion over paper towels. A working solution (100 μg/ml) of neutral red stain (Bio Basic Inc, Markham, Canada) was prepared, and 100 μl of this solution was added to each well, then the plate was gently shaken. The plate was incubated at 37°C in humidified 5% CO2 for 3 h, and then centrifuged (2000 r.p.m. for 10 min). Excess dyes were discarded, and the cells were fixed with 100 μl fixing solution (0.5% formalin with 1% calcium chloride [Sigma-Aldrich]) for 1 min. Cells were destained in 100 μl destaining solution (50% ethanol with 1% glacial acetic acid [Sigma-Aldrich]) for 5 min by shaking. The stain intensity was assayed using automated microplate reader spectrophotometer adjusted at 490 nm. Surviving cell fraction was calculated according to the following equation: [drawing 3]
The results were interpreted to calculate both the concentration causing 50% cancer cell death (IC50) of each compound and the maximum safe concentration that cause 100% viability (LD0; to be used in the in vitro anti-HCV testing) using GraphPad InStat 3.0 software.

[2] = system: human peripheral blood mononuclear cells (PBMCs); type: cell-based; settings: 72 h
Experimental: The safe compounds on RBCs (5a-g, 5i-l, 5p-r, 5v-w, 6b-g) were subjected to the in vitro cytotoxicity assay on human peripheral blood mononuclear cells (PBMCs). Viability of cells was measured using neutral red uptake assay as described by Borenfreund and Puerner to determine the concentrations of each compound that were not cytotoxic. The results were interpreted to calculate both the lethal concentration that kills 50% of cells (LD50) and the maximum safe concentration that causes 100% viability (LD0) of each compound using GraphPad InStat 3.0 software (Figure 6 & Supplementary Table 3).
The PBMCs were isolated by density gradient centrifugation technique as described by Boyum. Blood samples were freshly collected into heparinized or ethylenediaminetetraacetic acid sterile tubes. Blood was diluted using equal volume of RPMI-1640 medium containing 25 mM HEPES and then layered over equal volume of Ficoll-Pague™ Plus (Fisher BioReagents™ Lymphocyte Separation Medium-LSM, PA, USA) and centrifuged (2000 r.p.m. for 30 min at acceleration and deceleration speeds zero & zero) at room temperature. The buffy mononuclear cell layer was collected using sterile Pasteur pipette into 50 ml sterile Falcon tube and washed twice in phosphate-buffered saline (Sigma-Aldrich) using centrifugation (1650 r.p.m. for 5 min). The isolated PBMCs viability was determined by hemocytometer count using the trypan blue exclusion method. The PBMCs were resuspended at 1 × 10^6 cells/ml in RPMI-1640 medium containing 25 mM HEPES supplemented with 10% heat-inactivated FBS. The appropriate number of cells was chosen to be 1 × 10^5 cells/well (100 μl of the prepared suspension).
A 2 mg/ml stock solution of each compound was prepared in DMF and filtered using a 0.2 μM syringe filter. The desired concentrations (20, 10, 5, 2.5 and 1.25 μg/ml) were prepared using serial dilution in a 96-well plate. Compound wells were prepared by adding 100 μl of the previously prepared concentrations to a suspension of 1 × 10^5 PBMCs in 100 μl culture media. Parallel concentrations of the solvent were prepared to be used as controls. Control wells were prepared by adding 100 μl culture media to a suspension of 1 × 10^5 PBMCs in 100 μl culture media. Blank wells contained 200 μl of culture media only (without cells or compound solution). Each set of samples was pipetted in duplicate. The plate was then gently shaken then incubated at 37°C, 5% CO2 for 72 h.
After incubation, neutral red assay was performed as described previously, and surviving cell fraction was calculated according to the previously mentioned equation. Also, the results were interpreted to calculate both the lethal concentration that kills 50% of cells (LD50) and the maximum safe concentration that cause 100% viability (LD0) of each compound using GraphPad InStat 3.0 software.

[3] = Supplementary Table 2, read-out: Anticancer (HepG2) IC50
[4] = Table 1, read-out: IC50 (HepG2)

| Structure (SMILES) | IC50 [1, 3] | (LD0) HepG2 [1] | Safe doses (100% viability of HepG2) LD0 [1] | (LD0) PBMCs [2] | LD0 [2] | LD50 [2] | in vitro anticancer activity against HepG2, in words [1] | IC50 [1, 4] | Selectivity index ([1]; LD50 on PBMC / IC50 on HepG2) | Selectivity index ([1]; LD50 on normal cells / IC50 on cancer cells, larger than three = highly selective) | LD50 (PBMCs) [2] |
| --- | --- | --- | --- | --- | --- | --- | --- | --- | --- | --- | --- |
| CC(=NN=C1SC(=Cc2cn(-c3ccccc3)nc2-c2ccccc2)C(=O)N1c1ccccc1)c1cc2ccccc2o1 [Compound 5a, 2-[1-(Benzofuran-2-yl)ethylidenehydrazono]-5-[(1,3-Diphenyl-1H-pyrazol-4-yl)methylene]-3-phenylthiazolidin-4-one] | 173 µg/mL (≈ 298 µM) | 10.15 µg/mL | 10.15 µg/mL | 11.17 µg/mL | 11.17 µg/mL | 13.99 µg/mL |  |  |  |  |  |
| CC(=NN=C1SC(=Cc2cn(-c3ccccc3)nc2-c2ccc(Cl)cc2)C(=O)N1c1ccccc1)c1cc2ccccc2o1 [Compound 5b, 2-[1-(Benzofuran-2-yl)ethylidenehydrazono]-5-{[3-(4-chlorophenyl)-1-phenyl-1H-pyrazol-4-yl]methylene}-3-phenylthiazolidin-4-one] | 120 µg/mL (≈ 195 µM) | 23.02 µg/mL | 23.02 µg/mL | 5.83 µg/mL | 5.83 µg/mL | 92.27 µg/mL |  |  |  |  |  |
| COc1ccc(-c2nn(-c3ccccc3)cc2C=C2SC(=NN=C(C)c3cc4ccccc4o3)N(c3ccccc3)C2=O)cc1 [Compound 5c, 2-[1-(Benzofuran-2-yl)ethylidenehydrazono]-5-{[3-(4-methoxyphenyl)-1-phenyl-1H-pyrazol-4-yl]methylene}-3-phenylthiazolidin-4-one] | 143 µg/mL (≈ 235 µM) | 5.88 µg/mL | 5.88 µg/mL | 32.45 µg/mL | 32.45 µg/mL | 139.19 µg/mL |  |  |  |  |  |
| CC(=NN=C1SC(=Cc2cn(-c3ccccc3)nc2-c2ccccc2)C(=O)N1c1ccc(Cl)cc1)c1cc2ccccc2o1 [Compound 5d, 2-[1-(Benzofuran-2-yl)ethylidenehydrazono]-5-[(1,3-Diphenyl-1H-pyrazol-4-yl)methylene]-3-(4-chlorophenyl)thiazolidin-4-one] | 1140 µg/mL (≈ 1850 µM) | 163.55 µg/mL | 163.55 µg/mL | 11.43 µg/mL | 11.43 µg/mL | 160.43 µg/mL | very weak anticancer activity |  |  |  |  |
| CC(=NN=C1SC(=Cc2cn(-c3ccccc3)nc2-c2ccc(Cl)cc2)C(=O)N1c1ccc(Cl)cc1)c1cc2ccccc2o1 [Compound 5e, 2-[1-(Benzofuran-2-yl)ethylidenehydrazono]-5-{[3-(4-chlorophenyl)-1-phenyl-1H-pyrazol-4-yl]methylene}-3-(4-chlorophenyl)thiazolidin-4-one] | 318 µg/mL (≈ 490 µM) | 31.12 µg/mL | 31.12 µg/mL | 4.26 µg/mL | 4.26 µg/mL | 117.12 µg/mL |  |  |  |  |  |
| COc1ccc(-c2nn(-c3ccccc3)cc2C=C2SC(=NN=C(C)c3cc4ccccc4o3)N(c3ccc(Cl)cc3)C2=O)cc1 [Compound 5f, 2-[1-(Benzofuran-2-yl)ethylidenehydrazono]-5-{[3-(4-methoxyphenyl)-1-phenyl-1H-pyrazol-4-yl]methylene}-3-(4-chlorophenyl)thiazolidin-4-one] |  | 10.39 µg/mL | 10.39 µg/mL | 5.83 µg/mL | 5.83 µg/mL | 259.71 µg/mL | potential in vitro anticancer activity | 69.4 µg/mL (≈ 108 µM) | 3.74 | larger than three | 259.71 µg/mL |
| COc1ccc(N2C(=O)C(=Cc3cn(-c4ccccc4)nc3-c3ccccc3)SC2=NN=C(C)c2cc3ccccc3o2)cc1 [Compound 5g, 2-[1-(Benzofuran-2-yl)ethylidenehydrazono]-5-[(1,3-Diphenyl-1H-pyrazol-4-yl)methylene]-3-(4-methoxyphenyl)thiazolidin-4-one] | 193 µg/mL (≈ 316 µM) | 66.72 µg/mL | 66.72 µg/mL | 8.88 µg/mL | 8.88 µg/mL | 39.01 µg/mL |  |  |  |  |  |
| COc1ccc(-c2nn(-c3ccccc3)cc2C=C2SC(=NN=C(C)c3cc4ccccc4o3)N(c3ccc(OC)cc3)C2=O)cc1 [Compound 5i, 2-[1-(Benzofuran-2-yl)ethylidenehydrazono]-5-{[3-(4-methoxyphenyl)-1-phenyl-1H-pyrazol-4-yl]methylene}-3-(4-methoxyphenyl)thiazolidin-4-one] | 120 µg/mL (≈ 188 µM) | 0.05 µg/mL | 0.05 µg/mL | 7.60 µg/mL | 7.60 µg/mL | 25.35 µg/mL |  |  |  |  |  |
| CC(=NN=C1SC(=Cc2cn(-c3ccccc3)nc2-c2ccccc2)C(=O)N1C1CCCCC1)c1cc2ccccc2o1 [Compound 5j, 2-[1-(Benzofuran-2-yl)ethylidenehydrazono]-5-[(1,3-Diphenyl-1H-pyrazol-4-yl)methylene]-3-cyclohexylthiazolidin-4-one] |  | 5.08 µg/mL | 5.08 µg/mL | 9.90 µg/mL | 9.90 µg/mL | 134.00 µg/mL | potential in vitro anticancer activity | 63.8 µg/mL (≈ 109 µM) | 2.10 |  | 134.00 µg/mL |
